US20110034472A1, “Novel Compounds for Treatment of Cancer and Disorders Associated With Angiogenesis Function” (UNIVERSITY OF SOUTHERN CALIFORNIA, priority 2004, published 2011)

What was measured:
[1] = system: MCF-7/ADR breast cancer cells; test: MTT cytotoxicity assay, MCF-7/ADR; type: cell-based; settings: Homo sapiens, NCI/ADR-RES, read-out: CC50 values (mean ± SD)
Description: The sensitivity of a panel of seven human cancer cell lines to SC144 was assessed by MTT-assay. […] The sensitivity towards SC144 was time- and dose-dependent.

SF-268 CNS cancer cells = test: Sensitivity of various cancer cells to SC144, SF-268; type: cell-based; settings: Homo sapiens
Description: The studies were expanded to other cell lines. […] Subnanomolar to low nanomolar potency was also observed in HCT-116 and HT29 colon cancer cell lines (Table 2).

MDA-MB-435 cells = test: Flow cytometric cell cycle analysis, SC144; type: cell-based, human; settings: 24 h of treatment, SC144 3 uM
Description: Similar effects were obtained on the asynchronous prostate cancer cell line DU145.

HT29 colon cancer cells = test: MTT cytotoxicity assay, HT 29; type: cell-based, human; settings: Homo sapiens, 72 h
Description: Human breast cancer cells MDA-MB-435 and colon cancer HT29, p53 mutant were purchased from the American Type Cell Culture (Manassas, Va.). The HCT116 P53^+/+ and HCT116 P53^−/− cells were kindly provided by Dr. Bert Vogelstein (Johns Hopkins Medical Institutions, Baltimore, Md.). Human prostate cancer cells, LNCaP, were kindly provided by Richard Cote (University of Southern California Keck School of Medicine). Cells were maintained as monolayer cultures in RPMI 1640 media supplemented with 10% fetal bovine serum (Gemini-Bioproducts, Woodland, Calif.) and 2 mmol/L L-glutamine at 37° C. in a humidified atmosphere of 5% CO2. To remove the adherent cells from the flask for passaging and counting, cells were washed with PBS without calcium or magnesium, incubated with a small volume of 0.25% trypsin-EDTA solution (Sigma-Aldrich, St. Louis, Mo.) for 5-10 min, and washed with culture medium and centrifuged. All experiments were performed using cells at exponential growth stage. Cells were routinely checked for mycoplasma contamination using a PCR-based assay (Stratagene, Cambridge, UK).
Cytotoxicity was assessed by a 3-(4,5-dimethylthiazol-2-yl)-2,5-diphenyltetrazolium bromide (MTT) assay as previously described.^9 Briefly, cells were seeded in 96-well microtiter plates and allowed to attach. Cells were subsequently treated with continuous exposure to the corresponding drug for 72 h. An MTT solution (at a final concentration of 0.5 mg/mL) was added to each well, and cells were incubated for 4 h at 37° C. After removal of the medium, DMSO was added and the absorbance was read at 570 nm. All assays were done in triplicate. The IC50 was then determined for each drug from a plot of log (drug concentration) versus percentage of cells killed.

O=C(NNc1nc2cc(F)ccc2n2cccc12)c1cnccn1 [SC144, Pyrazine-2-carboxylic acid N′-(7-fluoro-pyrrolo[1,2-a]quinoxalin-4-yl)-hydrazide]
CC50 [1]: 2500 ± 1000 nM | CC50 (SF-268 CNS cancer cells): 300 nM | cells retained in S-phase (MDA-MB-435 cells): 80% | IC50 (HT29 colon cancer cells): 900 ± 60 nM
